# From patent EP0565593B1, “REDUCING PESTICIDAL INTERACTIONS IN CROPS” (priority 1990, dated 1992)
# Where two headings read alike, the source gives them in different places.
# Assays:
# Shattercane (SHCA) = format: in vivo; conditions: […]
# Velvetleaf (VELE) [1] = format: in vivo, Abutilon theophrasti; conditions: […]
# Giant foxtail (GIFT) = test: whole plant or invertebrate; format: in vivo
# Velvetleaf (VELE) [2] = test: whole plant or invertebrate; format: in vivo, Abutilon theophrasti
# Corn [3] = conditions: […]
# Corn [4] = test system: Corn
# [5] = observed 7 days after POE (Table 35)
# [6] = observed 7 days after POE (Table 36)
# [7] = observed 8 days later (Table 32)
# [8] = observed 8 days later (Table 33)
# [9] = […], PPI, 14 days after PPI (Table 34)
# [10] = observed 9 days later (Table 29)
# [11] = observed 9 days later (Table 30)
# [12] = […], PPI, 13 days after PPI (Table 31)
SMILES,% Inhibition SHCA (Shattercane (SHCA); [5]),% Inhibition SHCA (Shattercane (SHCA); [6]),% Inhibition VELE (Velvetleaf (VELE) [1]; [5]),% Inhibition VELE (Velvetleaf (VELE) [1]; [6]),% Inhibition GIFT (Giant foxtail (GIFT); in vivo),% Inhibition VELE (Velvetleaf (VELE) [2]; in vivo),% Inhibition Corn (Corn [3]; [5]),% Inhibition Corn (Corn [3]; [6]),% Inhibition Corn (Corn [4]; in vivo),% Inhibition SHCA (Shattercane (SHCA); [7]),% Inhibition SHCA (Shattercane (SHCA); [8]),% Inhibition VELE (Velvetleaf (VELE) [1]; [7]),% Inhibition VELE (Velvetleaf (VELE) [1]; [8]),% Inhibition GIFT (Giant foxtail (GIFT); [9]),% Inhibition VELE (Velvetleaf (VELE) [2]; [9]),% Inhibition Corn (Corn [3]; [7]),% Inhibition Corn (Corn [3]; [8]),% Inhibition Corn (Corn [4]; [9]),% Inhibition SHCA (Shattercane (SHCA); [10]),% Inhibition SHCA (Shattercane (SHCA); [11]),also measured
CCCCCCCCOC(=O)c1sc(Cl)nc1C(F)(F)F [compound 63],70%,40%,80%,65%,70%,90%,30%,55%,65%,–,–,–,–,–,–,–,–,–,–,–,–
O=C(O)COC(c1ccccc1)c1cccc(C(F)(F)F)c1 (stereo not drawn) [compound 49],–,–,–,–,–,–,–,–,–,70%,30%,90%,80%,65%,100%,45%,70%,55%,–,–,–
O=C(Oc1ccccc1)c1sc(Cl)nc1C(F)(F)F [compound 64],65%,35%,75%,70%,70%,90%,20%,60%,60%,–,–,–,–,–,–,–,–,–,–,–,–
CC1(C)OC(c2cccs2)CN1C(=O)C(Cl)Cl (stereo not drawn) [compound 22],–,–,–,–,–,–,–,–,–,–,–,–,–,–,–,–,–,–,65%,25%,% Inhibition VELE (Velvetleaf (VELE) [1]; [10]): 85%; % Inhibition VELE (Velvetleaf (VELE) [1]; [11]): 75%; % Inhibition GIFT (Giant foxtail (GIFT); [12]): 70%; % Inhibition VELE (Velvetleaf (VELE) [2]; [12]): 80%; % Inhibition Corn (Corn [3]; [10]): 20%; % Inhibition Corn (Corn [3]; [11]): 40%; % Inhibition Corn (Corn [4]; [12]): 45%
O=C(C(Cl)Cl)N1CCCC12CCCC2 [compound 19],–,–,–,–,–,–,–,–,–,–,30%,–,70%,65%,90%,–,55%,35%,80%,30%,% Inhibition VELE (Velvetleaf (VELE) [1]; [10]): 95%; % Inhibition VELE (Velvetleaf (VELE) [1]; [11]): 70%; % Inhibition GIFT (Giant foxtail (GIFT); [12]): 75%; % Inhibition VELE (Velvetleaf (VELE) [2]; [12]): 80%; % Inhibition Corn (Corn [3]; [10]): 20%; % Inhibition Corn (Corn [3]; [11]): 35%; % Inhibition Corn (Corn [4]; [12]): 55%
O=C(O)c1sc(Cl)nc1C(F)(F)F [compound 68],70%,45%,85%,60%,65%,80%,25%,65%,45%,–,–,–,–,–,–,–,–,–,–,–,–
CCOC(=O)COC(c1c(C)cccc1C)c1c(C)cccc1C [compound 58],–,–,–,–,–,–,–,–,–,70%,30%,85%,70%,60%,90%,55%,45%,30%,–,–,–
CC(C)CC1c2ccccc2CCN1C(=O)C(Cl)Cl (stereo not drawn) [compound 41],–,–,–,–,–,–,–,–,–,–,–,–,–,–,–,–,–,–,80%,30%,% Inhibition VELE (Velvetleaf (VELE) [1]; [10]): 90%; % Inhibition VELE (Velvetleaf (VELE) [1]; [11]): 70%; % Inhibition GIFT (Giant foxtail (GIFT); [12]): 90%; % Inhibition VELE (Velvetleaf (VELE) [2]; [12]): 80%; % Inhibition Corn (Corn [3]; [10]): 25%; % Inhibition Corn (Corn [3]; [11]): 45%; % Inhibition Corn (Corn [4]; [12]): 60%
O=C(COC(c1ccccc1)c1ccccc1)OCc1ccoc1 [compound 55],–,–,–,–,–,–,–,–,–,75%,25%,85%,70%,65%,90%,25%,50%,45%,–,–,–
[O-][n+]1ccccc1Sc1nc(Cl)c(Cl)c(Cl)c1Cl [compound 70],70%,25%,90%,85%,70%,95%,70%,65%,75%,–,–,–,–,–,–,–,–,–,–,–,–
